Experimental data as given in US20240262819A1, “NOVEL COMPOUNDS HAVING INHIBITORY ACTIVITY AGAINST GLUCOSYLCERAMIDE SYNTHASE OR PHARMACEUTICALLY ACCEPTABLE SALT THEREOF, PROCESSES FOR PREPARING THE SAME, AND PHARMACEUTICAL COMPOSITIONS COMPRISING THE SAME” (YUHAN CORPORATION, priority 2021, published 2024).
Where two headings read alike, the source gives them in different places.

Assays:
[1] = test system: GM1 production in Jurkat cells; experiment: cells; assay type: cell-based
[2] = target: glucosylceramide synthase (GCS) (Homo sapiens (Human), UniProt Q16739); experiment: Evaluation of inhibitory activities against GCS (A549 cell lysate, NBD C6-ceramide, HPLC); assay type: biochemical
Chain of glucosylceramide synthase (GCS) (Q16739 whole entry): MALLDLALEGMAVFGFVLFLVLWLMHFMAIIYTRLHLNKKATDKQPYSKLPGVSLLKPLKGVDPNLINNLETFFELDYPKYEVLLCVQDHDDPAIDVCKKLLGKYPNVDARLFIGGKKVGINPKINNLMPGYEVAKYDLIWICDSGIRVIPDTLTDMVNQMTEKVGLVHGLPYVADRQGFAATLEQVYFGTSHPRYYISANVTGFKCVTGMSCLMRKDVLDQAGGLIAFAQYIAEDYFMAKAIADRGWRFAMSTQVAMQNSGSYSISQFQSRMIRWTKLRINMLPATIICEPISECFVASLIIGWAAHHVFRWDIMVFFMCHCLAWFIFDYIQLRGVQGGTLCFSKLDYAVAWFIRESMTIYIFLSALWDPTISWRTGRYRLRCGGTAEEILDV
Experimental: The inhibitory activities of the compounds of the present invention against GCS were evaluated, as follows, according to the method described in the known literature (Hayashi Y et al., A sensitive and reproducible assay to measure the activity of glucosylceramide synthase and lactosylceramide synthase using HPLC and fluorescent substrates, Analytical Biochemistry 345 (2005) 181-186). Ibiglustat, known as a GCS inhibitor, was used as a control.
After the cells attached to the culture dish were washed with phosphate buffered saline (PBS), the cells were scraped off with a cell scraper and then centrifuged (4000 rpm, 3 min, 4 °C) to collect the cells in a 50 ml tube. The cell pellets were suspended in a lysis buffer (50 mM HEPES, pH 7.3, containing 1× the protease/phosphatase inhibitor cocktail), lysed by sonication, and then the lysate was centrifuged (13000 rpm, 10 min, 4° C.). The obtained supernatant was used for the quantitative analysis of proteins. The amount of proteins was measured using the BCA protein assay kit, using bovine serum albumin as a standard.
Enzymatic reactions were initiated by sequentially adding the following reaction materials to a 96 deep-well plate. Thereafter, the enzymatic reactions were performed at 37° C. for 90 minutes.
The enzymatic reactions were stopped by adding 100 μl of chloroform/methanol (2:1, v/v). […] The lower layer (50 μl) was transferred to a new 96 deep-well plate and dried with a reduced concentrator.
Lipids were dissolved in 100 μl of isopropyl alcohol/n-hexane/H2O (55:44:1, v/v/v) and then transferred to a glass vial for HPLC (Agilent, 8004-HP-H/i3u). The sample (100 μl) was automatically loaded onto a normal-phase column (Intersil SIL 150A-5, 4.6×250 mm, GL Sciences, Japan) and then eluted at a flow rate of 2.0 ml/min with isopropyl alcohol/n-hexane/H2O (55:44:1, v/v/v). The fluorescence thereof was measured with a fluorescence detector (Agilent, 1260 FLD Spectra), using 470 nm and 530 nm as excitation and emission wavelengths, respectively.
Data analysis was performed by the following equations.
% Area (Sample)=Area (GlcCer)/[Area (Cer)+Area (GlcCer)]×100%
GCS activity=[Area (Sample)−Area (ibiglustat)]/[Area (DMSO)−Area (ibiglustat)]×100
The obtained % GCS activity data was analyzed with the software GraphPad Prism (Ver 5.01) to calculate the IC50 values.

SMILES	IC50 ([1]; Homo sapiens, Jurkat, 72 h)	IC50 [2]	IC50 ([1]; read-out: IC50)	IC50 ([2]; % GCS activity, A549 cell lysate, 37° C. for 90 minutes, read-out: IC50)
Cc1cc(-c2ccc3c(c2)CC(C)(C)[C@H]3NC(=O)O[C@@H]2CN3CCC2CC3)ccc1OC(F)F [Example 48, (S)-quinuclidin-3-yl((R)-5-(4-(difluoromethoxy)-3-methylphenyl)-2,2-dimethyl-2,3-dihydro-1H-inden-1-yl)carbamate]	13.9 nM	1.3 nM	–	–
CC(C)Oc1cc(F)cc(-c2ccc3c(c2)CC(C)(C)[C@H]3NC(=O)O[C@@H]2CN3CCC2CC3)c1 [Example 49, (S)-quinuclidin-3-yl((R)-5-(3-fluoro-5-isopropoxyphenyl)-2,2-dimethyl-2,3-dihydro-1H-inden-1-yl)carbamate]	9.4 nM	0.58 nM	–	–
CC(C)COc1cc(F)cc(-c2ccc3c(c2)CC(C)(C)[C@H]3NC(=O)O[C@@H]2CN3CCC2CC3)c1 [Example 50, (S)-quinuclidin-3-yl((R)-5-(3-fluoro-5-isobutoxyphenyl)-2,2-dimethyl-2,3-dihydro-1H-inden-1-yl)carbamate]	2.2 nM	0.44 nM	–	–
CC1(C)Cc2cc(-c3cc(F)cc(OCC(F)(F)F)c3)ccc2[C@@H]1NC(=O)O[C@@H]1CN2CCC1CC2 [Example 51, (S)-quinuclidin-3-yl((R)-5-(3-fluoro-5-(2,2,2-trifluoroethoxy)phenyl)-2,2-dimethyl-2,3-dihydro-1H-inden-1-yl) carbamate]	–	–	9.1 nM	0.65 nM
CC(C)Oc1cc(-c2ccc3c(c2)CC(C)(C)[C@H]3NC(=O)O[C@@H]2CN3CCC2CC3)ccc1Cl [Example 52, (S)-quinuclidin-3-yl((R)-5-(4-chloro-3-isopropoxyphenyl)-2,2-dimethyl-2,3-dihydro-1H-inden-1-yl)carbamate]	36.7 nM	8.27 nM	–	–
CC(C)COc1cc(Cl)cc(-c2ccc3c(c2)CC(C)(C)[C@H]3NC(=O)O[C@@H]2CN3CCC2CC3)c1 [Example 53, (S)-quinuclidin-3-yl((R)-5-(3-chloro-5-isobutoxyphenyl)-2,2-dimethyl-2,3-dihydro-1H-inden-1-yl)carbamate]	4.1 nM	0.67 nM	–	–
CC(C)Oc1cc(Cl)cc(-c2ccc3c(c2)CC(C)(C)[C@H]3NC(=O)O[C@@H]2CN3CCC2CC3)c1 [Example 54, (S)-quinuclidin-3-yl((R)-5-(3-chloro-5-isopropoxyphenyl)-2,2-dimethyl-2,3-dihydro-1H-inden-1-yl)carbamate]	8.6 nM	0.59 nM	–	–
CC1(C)Cc2cc(-c3ccc(OCC(F)(F)F)cc3Cl)ccc2[C@@H]1NC(=O)O[C@@H]1CN2CCC1CC2 [Example 55, (S)-quinuclidin-3-yl((R)-5-(2-chloro-4-(2,2,2-trifluoroethoxy)phenyl)-2,2-dimethyl-2,3-dihydro-1H-inden-1-yl)carbamate]	2.2 nM	0.63 nM	–	–
CCCc1cccc(-c2cc3c(cc2F)[C@H](NC(=O)O[C@@H]2CN4CCC2CC4)C(C)(C)C3)c1 [Example 72, (S)-quinuclidin-3-yl((R)-6-fluoro-2,2-dimethyl-5-(3-propylphenyl)-2,3-dihydro-1H-inden-1-yl)carbamate]	15.9 nM	1.19 nM	–	–
COc1ccc(-c2cc3c(cc2F)[C@H](NC(=O)O[C@@H]2CN4CCC2CC4)C(C)(C)C3)cc1Cl [Example 85, (S)-quinuclidin-3-yl((R)-5-(3-chloro-4-methoxyphenyl)-6-fluoro-2,2-dimethyl-2,3-dihydro-1H-inden-1-yl)carbamate]	66.7 nM	0.818 nM	–	–
CCCCOc1ccc(-c2cc3c(cc2F)[C@H](NC(=O)O[C@@H]2CN4CCC2CC4)C(C)(C)C3)cc1Cl [Example 88, (S)-quinuclidin-3-yl((R)-5-(4-butoxy-3-chlorophenyl)-6-fluoro-2,2-dimethyl-2,3-dihydro-1H-inden-1-yl)carbamate]	21.1 nM	0.779 nM	–	–
CCCOc1ccc(-c2cc3c(cc2F)[C@H](NC(=O)O[C@@H]2CN4CCC2CC4)C(C)(C)C3)cc1F [Example 91, (S)-quinuclidin-3-yl((R)-6-fluoro-5-(3-fluoro-4-propoxyphenyl)-2,2-dimethyl-2,3-dihydro-1H-inden-1-yl)carbamate]	10.7 nM	0.329 nM	–	–
CCc1ccc(-c2cc3c(cc2F)[C@H](NC(=O)O[C@@H]2CN4CCC2CC4)C(C)(C)C3)cc1F [Example 93, (S)-quinuclidin-3-yl((R)-5-(4-ethyl-3-fluorophenyl)-6-fluoro-2,2-dimethyl-2,3-dihydro-1H-inden-1-yl)carbamate]	5.6 nM	0.37 nM	–	–
Cc1cc(-c2cc3c(cc2F)[C@H](NC(=O)O[C@@H]2CN4CCC2CC4)C(C)(C)C3)ccc1OC(C)C [Example 94, (S)-quinuclidin-3-yl((R)-6-fluoro-5-(4-isopropoxy-3-methylphenyl)-2,2-dimethyl-2,3-dihydro-1H-inden-1-yl)carbamate]	12.1 nM	0.52 nM	–	–
COc1cc(-c2cc3c(cc2F)[C@H](NC(=O)O[C@@H]2CN4CCC2CC4)C(C)(C)C3)ccc1OC(C)C [Example 95, (S)-quinuclidin-3-yl((R)-6-fluoro-5-(4-isopropoxy-3-methoxyphenyl)-2,2-dimethyl-2,3-dihydro-1H-inden-1-yl)carbamate]	18.2 nM	1.14 nM	–	–
CC(C)Oc1c(F)cc(-c2cc3c(cc2F)[C@H](NC(=O)O[C@@H]2CN4CCC2CC4)C(C)(C)C3)cc1F [Example 97, (S)-quinuclidin-3-yl((R)-5-(3,5-difluoro-4-isopropoxyphenyl)-6-fluoro-2,2-dimethyl-2,3-dihydro-1H-inden-1-yl)carbamate]	13 nM	1.06 nM	–	–
CC1(C)Cc2cc(-c3ccc(OCC4CC4)cc3Cl)c(F)cc2[C@@H]1NC(=O)O[C@@H]1CN2CCC1CC2 [Example 98, (S)-quinuclidin-3-yl((R)-5-(2-chloro-4-(cyclopropylmethoxy)phenyl)-6-fluoro-2,2-dimethyl-2,3-dihydro-1H-inden-1-yl)carbamate]	0.2 nM	0.06 nM	–	–
CC1(C)Cc2cc(-c3ccc(OCC4CC4)c(Cl)c3)c(F)cc2[C@@H]1NC(=O)O[C@@H]1CN2CCC1CC2 [Example 99, (S)-quinuclidin-3-yl((R)-5-(3-chloro-4-(cyclopropylmethoxy)phenyl)-6-fluoro-2,2-dimethyl-2,3-dihydro-1H-inden-1-yl)carbamate]	8.84 nM	0.67 nM	–	–
CC(C)Oc1c(Cl)cc(-c2cc3c(cc2F)[C@H](NC(=O)O[C@@H]2CN4CCC2CC4)C(C)(C)C3)cc1Cl [Example 100, (S)-quinuclidin-3-yl((R)-5-(3,5-dichloro-4-isopropoxyphenyl)-6-fluoro-2,2-dimethyl-2,3-dihydro-1H-inden-1-yl)carbamate]	16.2 nM	4.58 nM	–	–
CC(C)(C)Oc1ccc(-c2cc3c(cc2F)[C@H](NC(=O)O[C@@H]2CN4CCC2CC4)C(C)(C)C3)cc1 [Example 101, (S)-quinuclidin-3-yl((R)-5-(4-(tert-butoxy)phenyl)-6-fluoro-2,2-dimethyl-2,3-dihydro-1H-inden-1-yl)carbamate]	4.67 nM	0.38 nM	–	–
CC(C)(C)Oc1ccc(-c2cc3c(cc2F)[C@H](NC(=O)O[C@@H]2CN4CCC2CC4)C(C)(C)C3)c(Cl)c1 [Example 102, (S)-quinuclidin-3-yl((R)-5-(4-(tert-butoxy)-2-chlorophenyl)-6-fluoro-2,2-dimethyl-2,3-dihydro-1H-inden-1-yl)carbamate]	1.6 nM	0.19 nM	–	–
CCOc1ccc(-c2cc3c(cc2F)[C@H](NC(=O)O[C@@H]2CN4CCC2CC4)C(C)(C)C3)cc1C [Example 105, (S)-quinuclidin-3-yl((R)-5-(4-ethoxy-3-methylphenyl)-6-fluoro-2,2-dimethyl-2,3-dihydro-1H-inden-1-yl)carbamate]	8.2 nM	0.72 nM	–	–
CCCOc1ccc(-c2cc3c(cc2F)[C@H](NC(=O)O[C@@H]2CN4CCC2CC4)C(C)(C)C3)cc1C [Example 106, (S)-quinuclidin-3-yl((R)-6-fluoro-2,2-dimethyl-5-(3-methyl-4-propoxyphenyl)-2,3-dihydro-1H-inden-1-yl)carbamate]	2.3 nM	0.61 nM	–	–
Cc1cc(-c2cc3c(cc2F)[C@H](NC(=O)O[C@@H]2CN4CCC2CC4)C(C)(C)C3)ccc1OC(F)F [Example 107, (S)-quinuclidin-3-yl((R)-5-(4-(difluoromethoxy)-3-methylphenyl)-6-fluoro-2,2-dimethyl-2,3-dihydro-1H-inden-1-yl)carbamate]	16 nM	0.93 nM	–	–
